Measurements: patent US12588678B2, “Oxazoline compound, synthesis method therefor and application thereof” (NANKAI UNIVERSITY, priority 2019, dated 2026)

Key:
[1] = tested on: Tetranychus cinnabarinus mite eggs; test: Activity against mite eggs, dipping method on bean seedling leaves; type: in vivo; conditions: for mortality at 1 µg/mL / mortality at 10 µg/mL / mortality at 100 µg/mL / mortality at 200 µg/mL / mortality at 0.01 µg/mL / mortality at 0.05 µg/mL / mortality at 0.1 µg/mL: Tetranychus cinnabarinus, 96 h, checked after 4 days; for mortality at 1 µg/mL: read-out: mortality of mite eggs (%), 1 mg/L; for mortality at 10 µg/mL: read-out: mortality of mite eggs (%), 10 mg/L; for mortality at 100 µg/mL: read-out: mortality of mite eggs (%), 100 mg/L; for mortality at 200 µg/mL: read-out: mortality of mite eggs (%), 200 mg/L; for mortality at 0.01 µg/mL: read-out: mortality of mite eggs (%), 0.01 mg/L; for mortality at 0.05 µg/mL: read-out: mortality of mite eggs (%), 0.05 mg/L; for mortality at 0.1 µg/mL: read-out: mortality of mite eggs (%), 0.1 mg/L
Excerpt: (§1) The assay examples are used to illustrate the acaricidal activity against Tetranychus cinnabarinus (mortality of mite larvae and mortality of mite eggs) of the compounds having the structure represented by formula (I), and the results are shown in tables 1 to 9, where mortality of mite larvae % =(number of dead mite larvae applied/total number of mite larvae applied)×100, and mortality of mite eggs %= (number of dead mite eggs applied/total number of mite eggs applied)×100.
Tetranychus cinnabarinus bred indoors on bean seedlings was used as a test subject by the dipping method. Move female adult mites onto the newly grown complete bean seedling leaves with two leaves, cut off the bean seedlings, place the bean seedlings in a greenhouse with illumination at 25° C. for laying eggs for 24 hours, then remove adult mites and keep mite eggs. After continuously culturing in the greenhouse for one day, completely soak the bean seedling leaves containing the acarid eggs into the prepared sample solution to be tested for 5-6 seconds by using tweezers, slightly throw off residual liquid, put the bean seedling leaves back to the culture cup, continuously culture for 4 days and then check the result. One of the plants was immersed in a solution containing no sample to be tested and the remaining additives were identical to the sample solution as a blank control. Each compound was replicated three times.

[2] = tested on: Tetranychus cinnabarinus mite larvae; test: Larvicidal activity test, dipping method on bean seedling leaves; type: in vivo; conditions: for mortality at 100 µg/mL / mortality at 200 µg/mL / mortality at 10 µg/mL / mortality at 1 µg/mL / mortality at 0.01 µg/mL / mortality at 0.05 µg/mL / mortality at 0.1 µg/mL: Tetranychus cinnabarinus, 96 h, checked after 4 days; for mortality at 100 µg/mL: read-out: mortality of mite larvae (%), 100 mg/L; for mortality at 200 µg/mL: read-out: mortality of mite larvae (%), 200 mg/L; for mortality at 10 µg/mL: read-out: mortality of mite larvae (%), 10 mg/L; for mortality at 1 µg/mL: read-out: mortality of mite larvae (%), 1 mg/L; for acaricidal activity compared with etoxazole: Tetranychus cinnabarinus eggs and larvae, etoxazole as reference; for mortality at 0.01 µg/mL: read-out: mortality of mite larvae (%), 0.01 mg/L; for mortality at 0.05 µg/mL: read-out: mortality of mite larvae (%), 0.05 mg/L; for mortality at 0.1 µg/mL: read-out: mortality of mite larvae (%), 0.1 mg/L
Excerpt: as §1
Tetranychus cinnabarinus bred indoors on bean seedlings was used as a test subject by the dipping method. Move adult mites onto the newly grown complete bean seedling leaves with two leaves, cut off the bean seedlings, place the bean seedlings in a greenhouse with illumination at 25° C. for laying eggs for 24 hours, then remove adult mites and keep mite eggs. And continuously culture in the greenhouse for 5 days until mite eggs hatch into mite larvae (ensuring that the number of the mites on each tested leaf is not less than 60).
Completely immerse the bean seedling leaves containing the mite larvae into the sample solution to be detected with Tween at the prepared concentration for 5-6 seconds by using tweezers, slightly throw off residual liquid, put the bean seedling leaves back to the culture cup, continuously culture for 4 days and check the result. One of the plants was immersed in a solution containing no sample to be tested and the remaining additives were identical to the sample solution as a blank control. Each compound was replicated three times.

Row | Compound | mortality at 1 µg/mL [1] | mortality at 10 µg/mL [1] | mortality at 100 µg/mL [1] | mortality at 200 µg/mL [1] | mortality at 100 µg/mL [2] | mortality at 200 µg/mL [2] | mortality at 10 µg/mL [2] | mortality at 1 µg/mL [2] | mortality at 0.01 µg/mL [1] | mortality at 0.05 µg/mL [1] | mortality at 0.1 µg/mL [1] | activity on mite eggs, times that of etoxazole ([1]; relative to etoxazole) | acaricidal activity compared with etoxazole [2] | mortality at 0.01 µg/mL [2] | mortality at 0.05 µg/mL [2] | mortality at 0.1 µg/mL [2] | larvicidal activity, times that of etoxazole ([2]; relative to etoxazole)
1 | Fc1cccc(F)c1C1=NC(c2ccc(CN3CCCC3)cc2)CO1 (stereo not shown) [Compound R1-1] | 30% | 60% | 70% | 95% | 50% | 70% |  |  |  |  |  |  |  |  |  |  | 
2 | Fc1cccc(F)c1C1=NC(c2ccc(CN3CCCCCC3)cc2)CO1 (stereo not shown) [Compound R1-2] |  | 55% | 80% | 95% | 75% | 90% | 35% |  |  |  |  |  |  |  |  |  | 
3 | Fc1cccc(F)c1C1=NC(c2ccc(CN3CCCCCCC3)cc2)CO1 (stereo not shown) [Compound R1-3] | 55% | 70% | 90% | 100% | 95% | 100% | 70% | 55% |  |  |  |  |  |  |  |  | 
4 | Fc1cccc(F)c1C1=NC(c2ccc(CN3CCOCC3)cc2)CO1 (stereo not shown) [Compound R1-4] |  | 50% | 70% | 90% | 70% | 90% | 30% |  |  |  |  |  |  |  |  |  | 
5 | Fc1cccc(F)c1C1=NC(c2ccc(Cn3cccc3)cc2)CO1 (stereo not shown) [Compound R1-5] |  | 45% | 100% | 100% | 90% | 100% | 40% |  |  |  |  |  |  |  |  |  | 
6 | Fc1cccc(F)c1C1=NC(c2ccc(CN3CC=CC3)cc2)CO1 (stereo not shown) [Compound R1-6] | 50% | 70% | 100% | 100% | 100% | 100% | 70% | 50% |  |  |  |  |  |  |  |  | 
7 | CC(=O)N1CCN(Cc2ccc(C3COC(c4c(F)cccc4F)=N3)cc2)C1=O (stereo not shown) [Compound R1-8] |  | 40% | 95% | 100% | 95% | 100% | 65% | 35% |  |  |  |  |  |  |  |  | 
8 | O=C1CCC(=O)N1Cc1ccc(C2COC(c3c(F)cccc3F)=N2)cc1 (stereo not shown) [Compound R1-9] |  | 50% | 70% | 95% | 80% | 85% | 35% |  |  |  |  |  |  |  |  |  | 
9 | O=C1c2ccccc2C(=O)N1Cc1ccc(C2COC(c3c(F)cccc3F)=N2)cc1 (stereo not shown) [Compound R1-10] | 85% | 90% | 100% | 100% | 100% | 100% | 95% | 80% | 40% | 65% | 75% | 10 times | higher acaricidal activity than etoxazole | 40% | 55% | 70% | 
10 | Fc1cccc(F)c1C1=NC(c2ccc(Cn3cccn3)cc2)CO1 (stereo not shown) [Compound R1-12] |  | 50% | 80% | 90% | 70% | 100% | 40% |  |  |  |  |  |  |  |  |  | 
11 | Fc1cccc(F)c1C1=NC(c2ccc(CN3CCc4ccccc4C3)cc2)CO1 (stereo not shown) [Compound R1-13] | 60% | 90% | 100% | 100% | 88% | 100% | 70% | 40% |  |  |  |  |  |  |  |  | 
12 | Fc1cccc(F)c1C1=NC(c2ccc(CN3CCc4ccccc43)cc2)CO1 (stereo not shown) [Compound R1-14] | 40% | 70% | 95% | 100% | 95% | 100% | 70% | 30% |  |  |  |  |  |  |  |  | 
13 | Fc1cccc(F)c1C1=NC(c2ccc(Cn3ccc4ccccc43)cc2)CO1 (stereo not shown) [Compound R1-15] | 90% | 100% | 100% | 100% | 100% | 100% | 90% | 80% | 35% | 65% | 80% |  | higher acaricidal activity than etoxazole | 35% | 50% | 65% | 
14 | Cc1ccc2c(ccn2Cc2ccc(C3COC(c4c(F)cccc4F)=N3)cc2)c1 (stereo not shown) [Compound R1-16] | 50% | 70% | 100% | 100% | 100% | 100% | 65% | 50% |  |  |  |  |  |  |  |  | 
15 | Cc1ccc2ccn(Cc3ccc(C4COC(c5c(F)cccc5F)=N4)cc3)c2c1 (stereo not shown) [Compound R1-17] | 40% | 65% | 100% | 100% | 100% | 100% | 40% | 20% |  |  |  |  |  |  |  |  | 
16 | Cc1cccc2ccn(Cc3ccc(C4COC(c5c(F)cccc5F)=N4)cc3)c12 (stereo not shown) [Compound R1-18] | 80% | 100% | 100% | 100% | 100% | 100% | 100% | 85% | 30% | 55% | 75% |  | higher acaricidal activity than etoxazole | 45% | 55% | 75% | 5 times
17 | Cc1cn(Cc2ccc(C3COC(c4ccccc4F)=N3)cc2)c2ccccc12 (stereo not shown) [Compound R1-19] |  |  |  |  |  |  |  |  |  |  |  |  | higher acaricidal activity than etoxazole |  |  |  | 
18 | Fc1cccc(F)c1C1=NC(c2ccc(Cn3ccc4c(F)cccc43)cc2)CO1 (stereo not shown) [Compound R1-20] | 60% | 80% | 100% | 100% | 100% | 100% | 70% | 45% |  |  |  |  |  |  |  |  | 
19 | Fc1ccc2ccn(Cc3ccc(C4COC(c5c(F)cccc5F)=N4)cc3)c2c1 (stereo not shown) [Compound R1-21] | 30% | 70% | 100% | 100% | 100% | 100% | 60% |  |  |  |  |  |  |  |  |  | 
